US20260256792A1, “TREATMENT OF CHRONIC SPONTANEOUS URTICARIA BY ADMINISTERING (R)-2-[3-[4-AMINO-3-(2-FLUORO-4-PHENOXY-PHENYL)PYRAZOLO[3,4-D]PYRIMIDIN-1-YL]PIPERIDINE-1-CARBONYL]-4-METHYL-4-[4-(OXETAN-3-YL)PIPERAZIN-1-YL]PENT-2-ENENITRILE” (priority 2023, published 2026)

Tested on: moderate-to-severe chronic spontaneous urticaria (CSU)
Assay: Phase 2 CSU study: urticaria activity score over 7 days (UAS7)
Type: in vivo, human
Design: key to UAS7 Median / UAS7 Change from baseline Median / UAS7 change from baseline, Q1 / UAS7 change from baseline, Q3 / UAS7 change from baseline, Max / UAS7 Change from baseline LS Mean (SE): UAS7 points; daily UAS score ranges 0–6 points/day, over 7 days
Settings: for UAS7 Change from baseline LS Mean (SE) / UAS7 Post-baseline Mean (SD) / UAS7 % Change difference for rilzabrutinib vs. placebo LS Mean (95% CI) / UAS7 % Change from baseline LS Mean (SE) / UAS7 Change difference for rilzabrutinib vs. placebo LS Mean (95% CI): ITT population, 400 mg TID; for Imputed non-responder n (%), UAS7 = 0 / Imputed non-responder n (%), UAS7 ≤6 / Non-responder n (%), UAS7 = 0 / Non-responder n (%), UAS7 ≤6 / OR for rilzabrutinib vs. placebo, UAS7 = 0 / OR for rilzabrutinib vs. placebo, UAS7 ≤6 / RRD (%) for rilzabrutinib vs. placebo, UAS7 = 0 / RRD (%) for rilzabrutinib vs. placebo, UAS7 ≤6 / Responder n (%), UAS7 = 0 / Responder n (%), UAS7 ≤6: ITT, 400 mg BID
Description: The study comprises a 12 week, randomized, double-blind, placebo-controlled, multi-center, dose-ranging efficacy and safety phase, followed by a 40 week open label extension (OLE) phase (see FIG. 1). The study consists of three phases and an optional OLE phase. […] Clinically, CSU is characterized by the spontaneous and recurrent appearance of pruritic hives. The proposed primary endpoints were the UAS7 at Week 12 in EU and EU reference countries and the ISS7 in the US. Regardless of where a participant was from, all assessments were the same. The UAS7 score is a composite score containing both the HSS7 and the ISS7. This allowed a global assessment of the two key components of urticaria: hives and itch. […] The UAS is a validated PRO measure. […] The daily UAS scores range from 0 to 6 point/day. […] Patients were to complete the UAS using the e-diary. […] The following secondary endpoints were to be analyzed using the same approach as for the primary endpoint: • Change from baseline in UAS7 at Week 4 • Change from baseline in UAS7 at Week 12 (for US and US reference countries) • Change from baseline in ISS7 at Week 12 (except US and US reference countries) • Change from baseline in HSS7 at Week 12 The following responder secondary endpoints were to be analyzed using the Cochran-Mantel-Haenszel test adjusted by region: • Proportion of participants with UAS7<6 at Week 12 • Proportion of participants with UAS7=0 at Week 12 Participants who received selected prohibited medications and/or rescue medications were to be considered as non-responders for time points after the medication usage. For other participants, all available data including those collected during the off-treatment period were to be used to determine the responder/non-responder status. Missing data were to be considered as non-responders.

CC(C)(C=C(C#N)C(=O)N1CCC[C@@H](n2nc(-c3ccc(Oc4ccccc4)cc3F)c3c(N)ncnc32)C1)N1CCN(C2COC2)CC1 [rilzabrutinib, (R)-2-[3-[4-amino-3-(2-fluoro-4-phenoxy-phenyl)pyrazolo[3,4-d]pyrimidin-1-yl]piperidine-1-carbonyl]-4-methyl-4-[4-(oxetan-3-yl)piperazin-1-yl]pent-2-enenitrile]
UAS7 Change from baseline LS Mean (SE) (Week 5): −16.68
UAS7 Post-baseline Mean (SD) (Week 5): 12.72 (10.63)
UAS7 % Change difference for rilzabrutinib vs. placebo LS Mean (95% CI) (Week 6): −27.22%
UAS7 % Change from baseline LS Mean (SE) (Week 6): −54.12%
UAS7 Change difference for rilzabrutinib vs. placebo LS Mean (95% CI) (Week 6): −7.54
UAS7 Change from baseline LS Mean (SE) (Week 6): −16.68
UAS7 Post-baseline Mean (SD) (Week 6): 12.95 (11.42)
UAS7 % Change difference for rilzabrutinib vs. placebo LS Mean (95% CI) (Week 7): −25.60%
UAS7 % Change from baseline LS Mean (SE) (Week 7): −52.94%
UAS7 Change difference for rilzabrutinib vs. placebo LS Mean (95% CI) (Week 7): −7.30
UAS7 Change from baseline LS Mean (SE) (Week 7): −16.36
UAS7 Post-baseline Mean (SD) (Week 7): 13.31 (9.35)
UAS7 % Change difference for rilzabrutinib vs. placebo LS Mean (95% CI) (Week 8): −22.78%
UAS7 % Change from baseline LS Mean (SE) (Week 8): −54.62%
UAS7 Change difference for rilzabrutinib vs. placebo LS Mean (95% CI) (Week 8): −6.17
UAS7 Change from baseline LS Mean (SE) (Week 8): −16.52
UAS7 Post-baseline Mean (SD) (Week 8): 12.33 (10.15)
UAS7 % Change difference for rilzabrutinib vs. placebo LS Mean (95% CI) (Week 9): −26.48%
UAS7 % Change from baseline LS Mean (SE) (Week 9): −54.53%
UAS7 Change difference for rilzabrutinib vs. placebo LS Mean (95% CI) (Week 9): −7.09
UAS7 Change from baseline LS Mean (SE) (Week 9): −16.69
UAS7 Post-baseline Mean (SD) (Week 9): 11.76 (9.95)
UAS7 % Change difference for rilzabrutinib vs. placebo LS Mean (95% CI) (Week 10): −23.22%
UAS7 % Change from baseline LS Mean (SE) (Week 10): −56.75%
UAS7 Change difference for rilzabrutinib vs. placebo LS Mean (95% CI) (Week 10): −6.30
UAS7 Change from baseline LS Mean (SE) (Week 10): −17.20
UAS7 Post-baseline Mean (SD) (Week 10): 11.82 (10.15)
UAS7 % Change difference for rilzabrutinib vs. placebo LS Mean (95% CI) (Week 11): −25.03%
UAS7 % Change from baseline LS Mean (SE) (Week 11): −55.80%
UAS7 Change difference for rilzabrutinib vs. placebo LS Mean (95% CI) (Week 11): −6.74
UAS7 Change from baseline LS Mean (SE) (Week 11): −17.15
UAS7 Post-baseline Mean (SD) (Week 11): 12.17 (10.81)
Imputed non-responder n (%), UAS7 = 0 (Week 1): 1 (2.4) n (%)
Imputed non-responder n (%), UAS7 ≤6 (Week 1): 1 (2.4) n (%)
Non-responder n (%), UAS7 = 0 (Week 1): 38 (92.7) n (%)
Non-responder n (%), UAS7 ≤6 (Week 1): 34 (82.9) n (%)
OR for rilzabrutinib vs. placebo, UAS7 = 0 (Week 1): 3.132
OR for rilzabrutinib vs. placebo, UAS7 ≤6 (Week 1): 3.469
RRD (%) for rilzabrutinib vs. placebo, UAS7 = 0 (Week 1): 4.7 %
RRD (%) for rilzabrutinib vs. placebo, UAS7 ≤6 (Week 1): 10.3 %
Responder n (%), UAS7 = 0 (Week 1): 3 (7.3) n (%)
Responder n (%), UAS7 ≤6 (Week 1): 7 (17.1) n (%)
Imputed non-responder n (%), UAS7 = 0 (Week 2): 2 (4.9) n (%)
Imputed non-responder n (%), UAS7 ≤6 (Week 2): 2 (4.9) n (%)
Non-responder n (%), UAS7 = 0 (Week 2): 38 (92.7) n (%)
Non-responder n (%), UAS7 ≤6 (Week 2): 35 (85.4) n (%)
OR for rilzabrutinib vs. placebo, UAS7 = 0 (Week 2): 2.893
OR for rilzabrutinib vs. placebo, UAS7 ≤6 (Week 2): 2.834
RRD (%) for rilzabrutinib vs. placebo, UAS7 = 0 (Week 2): 4.2 %
RRD (%) for rilzabrutinib vs. placebo, UAS7 ≤6 (Week 2): 7.7 %
Responder n (%), UAS7 = 0 (Week 2): 3 (7.3) n (%)
Responder n (%), UAS7 ≤6 (Week 2): 6 (14.6) n (%)
Imputed non-responder n (%), UAS7 = 0 (Week 3): 1 (2.4) n (%)
Imputed non-responder n (%), UAS7 ≤6 (Week 3): 1 (2.4) n (%)
Non-responder n (%), UAS7 = 0 (Week 3): 37 (90.2) n (%)
Non-responder n (%), UAS7 ≤6 (Week 3): 31 (75.6) n (%)
OR for rilzabrutinib vs. placebo, UAS7 = 0 (Week 3): 3.857
OR for rilzabrutinib vs. placebo, UAS7 ≤6 (Week 3): 2.554
RRD (%) for rilzabrutinib vs. placebo, UAS7 = 0 (Week 3): 6.3 %
Responder n (%), UAS7 = 0 (Week 3): 4 (9.8) n (%)
Responder n (%), UAS7 ≤6 (Week 3): 10 (24.4) n (%)
Imputed non-responder n (%), UAS7 = 0 (Week 4): 4 (9.8) n (%)
Imputed non-responder n (%), UAS7 ≤6 (Week 4): 4 (9.8) n (%)
Non-responder n (%), UAS7 = 0 (Week 4): 38 (92.7) n (%)
Non-responder n (%), UAS7 ≤6 (Week 4): 28 (68.3) n (%)
OR for rilzabrutinib vs. placebo, UAS7 = 0 (Week 4): 1.278
